Series [1] in a line: Apparent passive permeability coefficient by cell based assay. It is filed as ADME.
In series [2] the target is ATP-dependent translocase ABCB1 (Homo sapiens, UniProt P08183). The experiment in a line: Drug transport assessed as MDR1 -mediated transcellular transport ratio by P-gp transport assay. Type of series: ADME.
Series [3] is described as follows: Clearance in Mongrel dog at 3 mg/kg, po or 1 mg/kg, iv. It is filed as ADME, organism-based, Canis lupus familiaris. To be noted: in vivo.
Series [4] can be described thus: Half life in Mongrel dog at 3 mg/kg, po or 1 mg/kg, iv. Type of series: ADME, organism-based, Canis lupus familiaris. To be noted: in vivo.
The next series addresses Cannabinoid receptor 2 (Homo sapiens, UniProt P34972). The experiment in a line: Displacement of radioligand from human CB2 receptor expressed in CHO cells. Type of series: cell-based.
The nature of series [5]: Clearance in Sprague-Dawley rat at 10 mg/kg, po or 2 mg/kg, iv. Type of series: ADME, organism-based. The following applies: in vivo.
Series [6] can be described thus: Oral bioavailability in Sprague-Dawley rat at 10 mg/kg. It is filed as ADME, organism-based. The following applies: in vivo.
Series [7] in a line: Half life in Sprague-Dawley rat at 10 mg/kg, po or 2 mg/kg, iv. Type of series: ADME, organism-based. To be noted: in vivo.
The test system of the next series is Liver microsomes. As to the kind of experiment: Stability in human liver microsomes. Type of series: ADME, Microsome.

Where only a bound is given, the exact number is not on record here.

Sequence of Cannabinoid receptor 2 (P34972 whole entry): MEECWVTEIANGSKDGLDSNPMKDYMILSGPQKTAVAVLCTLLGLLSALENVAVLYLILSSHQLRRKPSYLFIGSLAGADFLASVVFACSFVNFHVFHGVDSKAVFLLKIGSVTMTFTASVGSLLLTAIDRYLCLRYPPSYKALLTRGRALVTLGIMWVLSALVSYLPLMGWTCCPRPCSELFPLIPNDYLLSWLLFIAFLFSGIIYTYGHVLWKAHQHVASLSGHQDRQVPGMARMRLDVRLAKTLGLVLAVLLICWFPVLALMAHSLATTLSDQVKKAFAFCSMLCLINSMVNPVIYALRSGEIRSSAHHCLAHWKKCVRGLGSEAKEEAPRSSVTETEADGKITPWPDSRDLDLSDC
Sequence of ATP-dependent translocase ABCB1 (P08183 whole entry): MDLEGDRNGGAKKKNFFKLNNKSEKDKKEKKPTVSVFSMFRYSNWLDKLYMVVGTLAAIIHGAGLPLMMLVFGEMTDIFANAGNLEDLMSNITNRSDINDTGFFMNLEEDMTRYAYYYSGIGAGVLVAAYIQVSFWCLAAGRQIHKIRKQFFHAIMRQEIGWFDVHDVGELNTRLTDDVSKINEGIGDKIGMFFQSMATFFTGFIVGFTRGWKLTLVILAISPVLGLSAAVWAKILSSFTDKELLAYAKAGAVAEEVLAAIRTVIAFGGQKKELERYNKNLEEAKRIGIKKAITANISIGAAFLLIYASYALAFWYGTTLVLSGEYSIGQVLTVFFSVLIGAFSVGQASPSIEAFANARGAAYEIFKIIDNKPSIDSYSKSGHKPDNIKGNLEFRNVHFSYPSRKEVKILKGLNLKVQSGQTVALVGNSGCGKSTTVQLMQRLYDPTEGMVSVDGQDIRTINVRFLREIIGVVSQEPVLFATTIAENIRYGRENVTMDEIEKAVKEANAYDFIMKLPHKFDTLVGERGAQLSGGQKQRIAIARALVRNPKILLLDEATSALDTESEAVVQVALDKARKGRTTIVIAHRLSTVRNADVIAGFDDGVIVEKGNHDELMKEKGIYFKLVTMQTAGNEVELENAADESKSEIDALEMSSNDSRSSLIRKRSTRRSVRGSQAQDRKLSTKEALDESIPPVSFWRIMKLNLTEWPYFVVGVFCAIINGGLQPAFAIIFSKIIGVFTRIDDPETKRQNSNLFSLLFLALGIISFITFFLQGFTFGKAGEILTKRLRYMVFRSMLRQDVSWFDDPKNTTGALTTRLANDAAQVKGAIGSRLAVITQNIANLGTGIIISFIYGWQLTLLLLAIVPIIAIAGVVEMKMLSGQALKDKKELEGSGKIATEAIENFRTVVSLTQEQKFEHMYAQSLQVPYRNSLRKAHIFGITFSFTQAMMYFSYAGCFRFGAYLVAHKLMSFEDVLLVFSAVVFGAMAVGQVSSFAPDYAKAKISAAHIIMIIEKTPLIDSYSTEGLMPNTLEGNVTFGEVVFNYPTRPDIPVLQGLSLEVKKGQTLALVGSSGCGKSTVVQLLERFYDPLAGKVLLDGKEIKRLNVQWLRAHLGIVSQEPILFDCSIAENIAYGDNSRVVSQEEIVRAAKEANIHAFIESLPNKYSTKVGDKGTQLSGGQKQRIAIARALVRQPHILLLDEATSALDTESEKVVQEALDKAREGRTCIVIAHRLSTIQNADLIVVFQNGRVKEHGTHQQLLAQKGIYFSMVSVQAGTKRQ

Turning to `C[C@@H](NC(=O)C1(NC(=O)c2cncs2)CC1)c1ccc(-n2nc(Cl)c3ccccc32)cc1F`, the apparent permeability (Papp) in [1] is 19 ×10⁻⁶ cm/s. For the same molecule, the Ratio in series [2] stood at 2.8. In [3], this molecule returned a clearance of 1.1 mL/min/kg. The same molecule had a half-life in [4] of 258 min.
Take `C[C@@H](NC(=O)C1(NC(=O)c2ccnnc2)CC1)c1ccc(-n2nc(Cl)c3ccccc32)cc1F`: in series [1], the apparent permeability coefficient (Papp) was determined as 25 ×10⁻⁶ cm/s. In addition, the Ratio in [2] is 29.4.
In turn, `CCc1nn(-c2ccc([C@@H](C)NC(=O)C3(NC(=O)c4cc(OC)no4)CC3)c(F)c2)c2ccccc12` returned a Ki at Cannabinoid receptor 2 of more than 10 µM.
The same measure, in the same setting: for `COc1cc(C(=O)NC2(C(=O)N[C@H](C)c3ccc(-n4ncc5ccccc54)cc3F)CC2)on1` the value was more than 10 µM.
`Cc1cncc(C(=O)NC2(C(=O)N[C@H](C)c3ccc(-n4nc(Cl)c5ccccc54)cc3F)CC2)c1`: the apparent permeability (Papp) in series [1] was 22 ×10⁻⁶ cm/s. In series [2], the Ratio amounted to 1.9. This molecule also displayed a clearance in [3] of 4.3 mL/min/kg. The same molecule had a half-life in series [4] of 156 min.
On to `C[C@@H](NC(=O)C1(NC(=O)c2cncnc2)CC1)c1ccc(-n2nc(Cl)c3ccccc32)cc1F`, for which, in series [1], the apparent permeability coefficient (Papp) was determined as 24 ×10⁻⁶ cm/s. The Ratio in series [2] stood at 5.9.
Turning to `C[C@@H](NC(=O)C1(NC(=O)c2cncc(Br)c2)CC1)c1ccc(-n2nc(Cl)c3ccccc32)cc1F`, in series [1], the Papp turned out to be 13 ×10⁻⁶ cm/s. The Ratio in [2] was found to be 2.3. In addition, the values for the clearance in series [5] and in [3] were 2.5 mL/min/kg and 3.8 mL/min/kg, respectively. In addition, the half-life in series [4] is 456 min; in series [7] it was 186 min. The molecule also came in with a bioavailability in [6] of 24%.
In the case of `C[C@@H](NC(=O)C1(NC(=O)c2cncc(Cl)n2)CC1)c1ccc(-n2nc(Cl)c3ccccc32)cc1F`, the apparent permeability (Papp) in [1] was determined as 24 ×10⁻⁶ cm/s. Moreover, the Ratio in series [2] came to 1.8. In addition, the clearance in series [5] amounted to 105 mL/min/kg; in series [3], 10.5 mL/min/kg. The figures for the half-life in series [4] and in series [7] were 906 min and 96 min, respectively.
On to `C[C@@H](NC(=O)C1(NC(=O)c2cncc(O)c2)CC1)c1ccc(-n2nc(Cl)c3ccccc32)cc1F`, for which the Papp in [1] was 18 ×10⁻⁶ cm/s. The Ratio in [2] turned out to be 89.
In turn, `COc1cc(C(=O)NC2(C(=O)N[C@H](C)c3ccc(-n4nc(C)c5ccccc54)cc3F)CC2)on1` displayed an inhibitory constant (Ki) at Cannabinoid receptor 2 of more than 10 µM.
Regarding `COC(=O)c1c(F)cccc1-c1ccc(CNC(=O)C2(NC(=O)C(F)(F)F)CC2)c(F)c1`, the Ratio in series [2] is recorded as 4.1.
Regarding `Cc1ncsc1C(=O)NC1(C(=O)N[C@H](C)c2ccc(-n3nc(Cl)c4ccccc43)cc2F)CC1`, the Stability result in the series on Liver microsomes is “Unstable”.
Regarding `COc1cc(C(=O)NC2(C(=O)N[C@H](C)c3ccc(-n4nc(-c5ccccc5)c5ccccc54)cc3F)CC2)on1`, at Cannabinoid receptor 2, the Ki is more than 10 µM.
`C[C@@H](NC(=O)C1(NC(=O)c2cncc(F)c2)CC1)c1ccc(-n2nc(Cl)c3ccccc32)cc1F`: the Papp in series [1] was 24 ×10⁻⁶ cm/s. Moreover, in [2], the Ratio was 7.5.
The molecule `COc1cc(C(=O)NC2(C(=O)N[C@H](C)c3ccc(-n4nc(C5CC5)c5ccccc54)cc3F)CC2)on1` displayed a Ki at Cannabinoid receptor 2 of more than 10 µM.
For the molecule `COc1cncc(C(=O)NC2(C(=O)N[C@H](C)c3ccc(-n4nc(Cl)c5ccccc54)cc3F)CC2)c1`, in series [1], the apparent permeability coefficient (Papp) turned out to be 21 ×10⁻⁶ cm/s. Further, the Ratio in series [2] worked out at 5.3. Further, the clearance in series [5] is 7.8 mL/min/kg; in [3], 5.5 mL/min/kg. The half-life in series [4] was 138 min; in series [7] it was 42 min. For the same molecule, the bioavailability in [6] stood at 6%.
On to `C[C@@H](NC(=O)C1(NC(=O)c2cncc(Cl)c2)CC1)c1ccc(-n2nc(Cl)c3ccccc32)cc1F`, for which the Papp in [1] was 15 ×10⁻⁶ cm/s. For the same molecule, the Ratio in series [2] amounted to 2.5. Further, the clearance in series [3] is 3.1 mL/min/kg. This molecule showed a half-life in series [4] of 360 min.
On to `C[C@@H](NC(=O)C1(NC(=O)c2ccc(Br)nc2)CC1)c1ccc(-n2nc(Cl)c3ccccc32)cc1F`, for which, in series [1], the Papp was determined as 8.2 ×10⁻⁶ cm/s. In series [2], the Ratio was 2.2. In series [3], this molecule yielded a clearance of 2.6 mL/min/kg. The same molecule showed a half-life in series [4] of 426 min.
`COc1cc(C(=O)NC2(C(=O)N[C@H](C)c3ccc(-n4nc(OC)c5ccccc54)cc3F)CC2)on1`: the Ki at Cannabinoid receptor 2 is more than 10 µM.
The same measure, in the same setting: the result for `COc1cc(C(=O)NC2(C(=O)N[C@H](C)c3ccc(-n4nc(C#N)c5ccccc54)cc3F)CC2)on1` reads more than 10 µM.
Regarding `C[C@@H](NC(=O)C1(NC(=O)c2cnccn2)CC1)c1ccc(-n2nc(Cl)c3ccccc32)cc1F`, the Papp in series [1] is 30 ×10⁻⁶ cm/s. The Ratio in series [2] amounted to 1.6.
With `COc1cc(C(=O)NC2(C(=O)N[C@H](C)c3ccc(-n4nc(Cl)c5ccccc54)cc3F)CC2)on1`, the apparent permeability (Papp) in series [1] amounted to 26 ×10⁻⁶ cm/s. For the same molecule, in series [2], the Ratio came to 1.6. Also, the Ki on Cannabinoid receptor 2 is more than 10 µM. For the same molecule, the values for the clearance in [5] and in series [3] were 5.3 mL/min/kg and 1.3 mL/min/kg, respectively. Also, the half-life in series [4] is 1250 min; in series [7], 186 min. This molecule yielded a bioavailability in series [6] of 49%.
`COc1ncc(C(=O)NC2(C(=O)N[C@H](C)c3ccc(-n4nc(Cl)c5ccccc54)cc3F)CC2)s1`: the Papp in [1] is 14 ×10⁻⁶ cm/s. Also, the Ratio in series [2] is 1.8. Besides, the clearance in series [5] was 12.7 mL/min/kg; in [3], 1.7 mL/min/kg. Further, the half-life in [4] and in [7] was 498 min in each case. The molecule also returned a bioavailability in series [6] of 13%.
`COc1cc(C(=O)NC2(C(=O)N[C@H](C)c3ccc(-n4[nH]c(=O)c5ccccc54)cc3F)CC2)on1`: on Cannabinoid receptor 2, the inhibition constant Ki is more than 10 µM.
Still for that read-out and setting: the result for `COc1cc(C(=O)NC2(C(=O)N[C@H](C)c3ccc(-n4nc(Br)c5ccccc54)cc3F)CC2)on1` reads more than 10 µM.
`C[C@@H](NC(=O)C1(NC(=O)c2cn[nH]c2)CC1)c1ccc(-n2nc(Cl)c3ccccc32)cc1F`: the apparent permeability coefficient (Papp) in series [1] was 19 ×10⁻⁶ cm/s. Also, in [2], the Ratio stood at 55.6. For the same molecule, the Stability result with Liver microsomes is listed as “Stable”.
With `Cc1nnsc1C(=O)NC1(C(=O)N[C@H](C)c2ccc(-n3nc(Cl)c4ccccc43)cc2F)CC1`, the Papp in [1] stood at 21 ×10⁻⁶ cm/s. Also, the Ratio in series [2] is 2.3. This molecule also gave a clearance in [3] of 9.6 mL/min/kg. In addition, in series [4], the half-life is 144 min.

A word on the Papp: it is the rate of passage across a membrane or cell layer, normalised by area and donor concentration. A word on the half-life: it is the time needed for the level to fall by half in the phase considered. A low value points to fast loss. One may read the Ki as a dissociation constant, usually derived from enzyme kinetics or from competition with a known ligand. A high value points to weaker binding. In general, bioavailability refers to the share of a dose that reaches the circulation, judged against a reference dose that is usually intravenous. Higher therefore signals much systemic uptake.

(Values after ChEMBL document CHEMBL1800002, “Indazole derivatives as novel bradykinin B1 receptor antagonists” (Bioorg Med Chem Lett, 2010).)
